# Test results taken from paper PMC3319082 (Bioorganic & medicinal chemistry letters, 2011).
# Target: rat mGlu4 (Rattus norvegicus, UniProt P31423)
# Format: cell-based
# Details: rat mGlu4/GIRK cells, Fig. 2
# Sequence of rat mGlu4 (P31423 33-912): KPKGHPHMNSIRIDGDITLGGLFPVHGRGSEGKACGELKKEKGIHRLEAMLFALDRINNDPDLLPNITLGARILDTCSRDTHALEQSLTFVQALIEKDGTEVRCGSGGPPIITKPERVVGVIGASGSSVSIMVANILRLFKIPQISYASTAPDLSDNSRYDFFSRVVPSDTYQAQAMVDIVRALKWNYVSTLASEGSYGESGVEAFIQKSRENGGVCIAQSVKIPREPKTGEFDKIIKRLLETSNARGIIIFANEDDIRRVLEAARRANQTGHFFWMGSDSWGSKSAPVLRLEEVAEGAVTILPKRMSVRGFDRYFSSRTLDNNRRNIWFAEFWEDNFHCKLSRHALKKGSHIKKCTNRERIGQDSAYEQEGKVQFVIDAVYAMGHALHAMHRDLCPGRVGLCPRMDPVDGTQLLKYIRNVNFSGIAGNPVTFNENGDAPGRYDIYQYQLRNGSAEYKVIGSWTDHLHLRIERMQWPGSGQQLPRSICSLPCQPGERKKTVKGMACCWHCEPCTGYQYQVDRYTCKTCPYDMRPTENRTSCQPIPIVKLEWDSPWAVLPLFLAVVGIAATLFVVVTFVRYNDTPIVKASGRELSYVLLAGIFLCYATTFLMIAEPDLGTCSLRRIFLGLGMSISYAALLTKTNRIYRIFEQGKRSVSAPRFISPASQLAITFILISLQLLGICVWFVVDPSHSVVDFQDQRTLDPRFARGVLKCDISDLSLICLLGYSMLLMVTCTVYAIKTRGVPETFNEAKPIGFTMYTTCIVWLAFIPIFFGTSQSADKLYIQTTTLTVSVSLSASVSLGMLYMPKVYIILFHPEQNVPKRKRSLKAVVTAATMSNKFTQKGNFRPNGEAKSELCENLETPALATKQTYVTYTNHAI
compound,measurement,value
O=C(COc1ccccc1Br)c1ccc(Cl)nc1 [2e],Antagonist activity in rat mGlu4 thallium flux assay,confirmed to be active
